Data from patent US11059832B2, “HPK1 inhibitors and methods of using same” (University Health Network, priority 2015, dated 2021).

Assays:
LCK = target: T1, LCK (Homo sapiens, UniProt P06239); assay: LCK inhibition, FRET based Z'-LYTE Kinase Assay; format: biochemical; conditions: 25 nM LCK, 180 μM ATP; read-out: IC50 Range Lck
T1 construct: purchased Invitrogen P3043
Protocol: (§1) FLT3 and LCK compound inhibition were determined using FRET based Z′-LYTE Kinase Assay Kit with Tyrosine 2 peptide as the substrate (Invitrogen cat #PV3191). […] The % inhibition values were determined according to the manufacturer's directions and IC50 values were obtained using a non-linear 4 point logistic curve fit (XLfit4, IDBS).

[1] = system: ERK1/2 T202/Y204 phosphorylation in α-CD3 stimulated Jurkat E6.1 cells; assay: In vitro phosphorylation assay, ERK1/2 T202/Y204 (immunoblot); format: cell-based; conditions: Homo sapiens, 4 h pretreatment, read-out: ERK1/2 T202/Y204 Phosphorylation Onset Inhibition
Protocol: Jurkat E6.1 cells were obtained from American Type Culture Collection (ATCC, Manassas, Va.), and maintained according to the supplier's instructions. Cells were washed three times and starved in RPMI 1640 medium supplemented with 0.5% fetal calf serum for 18 h at 37° C. Serum starved cells were pretreated with the indicated concentration of inhibitor for 4 hours before stimulation with 10 μg/ml α-CD3 antibody (BioLegend, Inc., San Diego, Calif.) for 10 min at 37° C. The cells were washed once in phosphate-buffered saline (pH 7.4) containing 10 mm sodium pyrophosphate, 10 mm sodium fluoride, 10 mm EDTA, and 1 mm sodium orthovanadate. Protein lysates were prepared using ice-cold radioimmunoprecipitation assay (RIPA) lysis buffer. A total of 100 μg of cell lysate was loaded onto Bis-Tris gels (Life Technologies, Carlsbad, Calif.) with full-range molecular weight marker as a size reference, and resolved by SDS-PAGE electrophoresis. Proteins were transferred to PVDF membrane (Millipore, Billerica, Mass.), blocked and probed with antibodies for phospho-SLP-76 (Ser376) (rabbit polyclonal #13177; Cell Signaling Technology Inc., Danvers, Mass.), SLP-76 (rabbit polyclonal #4958; Cell Signaling Technology Inc., Danvers, Mass.), phospho-ERK (mouse monoclonal sc-7383; Santa Cruz Biotechnology Inc., Santa Cruz, Calif.) and ERK1/2 (rabbit polyclonal 06-182; Millipore, Billerica, Mass.). Secondary antibodies were diluted 1 in 15,000 and incubated for 1 h at rt. Protein bands were visualized and quantified using Odyssey near infrared imager (LI-COR, Lincoln, Nebr.).
Table 2 below lists effects of representative compounds of the present invention against SLP-76 serine 376 phosphorylation and ERK1/2 T202/Y204 phosphorylation in α-CD3 stimulated Jurkat E6.1 cells.

FLT3 = target: T2, FLT3 (Homo sapiens, UniProt P36888); assay: FLT3 inhibition, FRET based Z'-LYTE Kinase Assay; format: biochemical; conditions: 1 nM FLT3, 940 μM ATP; read-out: IC50 Range Flt3
T2 construct: purchased Invitrogen PV3182
T2 sequence (P36888 27-993): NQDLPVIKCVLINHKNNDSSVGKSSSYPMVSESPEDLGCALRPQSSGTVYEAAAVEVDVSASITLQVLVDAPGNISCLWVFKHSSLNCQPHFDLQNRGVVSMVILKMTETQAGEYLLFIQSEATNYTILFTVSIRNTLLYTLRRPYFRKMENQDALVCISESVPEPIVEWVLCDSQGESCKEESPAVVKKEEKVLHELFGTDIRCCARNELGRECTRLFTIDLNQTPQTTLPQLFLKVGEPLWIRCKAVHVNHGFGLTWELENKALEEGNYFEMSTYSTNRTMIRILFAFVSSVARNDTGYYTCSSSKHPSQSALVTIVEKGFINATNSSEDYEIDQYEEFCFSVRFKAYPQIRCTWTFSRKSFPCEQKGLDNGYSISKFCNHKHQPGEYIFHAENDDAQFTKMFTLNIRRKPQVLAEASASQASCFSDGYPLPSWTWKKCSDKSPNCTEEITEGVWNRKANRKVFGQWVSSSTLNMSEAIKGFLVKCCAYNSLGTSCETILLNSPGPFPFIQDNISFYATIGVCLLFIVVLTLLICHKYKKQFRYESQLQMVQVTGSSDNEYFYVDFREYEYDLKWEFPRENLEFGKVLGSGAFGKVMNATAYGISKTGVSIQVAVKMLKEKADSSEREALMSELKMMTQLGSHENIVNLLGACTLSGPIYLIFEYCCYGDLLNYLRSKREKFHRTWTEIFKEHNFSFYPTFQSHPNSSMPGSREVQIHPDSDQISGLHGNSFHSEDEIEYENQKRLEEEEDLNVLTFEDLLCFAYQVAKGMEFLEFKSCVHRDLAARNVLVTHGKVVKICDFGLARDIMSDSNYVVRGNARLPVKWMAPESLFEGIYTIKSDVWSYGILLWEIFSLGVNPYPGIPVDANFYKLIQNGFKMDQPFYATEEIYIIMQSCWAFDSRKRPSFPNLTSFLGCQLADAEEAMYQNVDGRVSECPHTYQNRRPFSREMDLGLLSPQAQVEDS
Protocol: as §1

CT26 WT colon carcinoma = assay: Syngeneic CT26 cell line xenograft model; format: in vivo; conditions: for Survival (tumour size <1500 mm^3 at day 21): 8 animals
Protocol: Six to eight week old female BALB/c mice were purchased from Jackson Laboratories and received and acclimated at the MaRS-TMDT Animal Resources Centre for 1 week prior to the start of the experiment. […] Mice were housed in microisolator cages and maintained in an environment with a 12 h light cycle at 20-22° C. and 40-60% humidity. On the day of implantation, CT26 cells were harvested and re-suspended with serum free RPMI1640 to a concentration of 1×10^7/mL and each mouse was injected subcutaneously with a volume of 0.1 mL containing 1×10^6 CT26 cells in the right rear flank. […] Toxicity was evaluated by body weight measurements and clinical observations. Tumour measurements and body weights were taken three times per week.
According to University Health Network (UHN) Animal Use Protocols (AUPs), mice in efficacy experiments should be sacrificed when the tumour size is above 1500 mm^3 or if the bodyweight of the animal decreases or if the animals are displaying clinical signs that require termination for humane reasons. […] A tumour size of <1500 mm^3 at day 21 was used as a cutoff to represent survival.

T1 sequence (P06239 whole entry, species assumed): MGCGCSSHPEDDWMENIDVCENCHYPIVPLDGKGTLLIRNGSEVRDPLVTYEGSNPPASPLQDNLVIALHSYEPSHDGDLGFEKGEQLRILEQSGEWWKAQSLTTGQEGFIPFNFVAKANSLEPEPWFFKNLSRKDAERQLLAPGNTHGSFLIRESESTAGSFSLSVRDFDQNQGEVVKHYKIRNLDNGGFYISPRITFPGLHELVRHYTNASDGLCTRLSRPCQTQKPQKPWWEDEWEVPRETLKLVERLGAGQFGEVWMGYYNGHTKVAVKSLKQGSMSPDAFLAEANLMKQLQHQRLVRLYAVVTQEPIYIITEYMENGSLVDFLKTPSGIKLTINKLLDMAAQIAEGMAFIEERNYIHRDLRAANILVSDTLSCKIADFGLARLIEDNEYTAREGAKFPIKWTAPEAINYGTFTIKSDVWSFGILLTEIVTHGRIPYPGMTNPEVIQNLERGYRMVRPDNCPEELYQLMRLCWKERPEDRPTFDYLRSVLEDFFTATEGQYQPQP

Compound: CN1CCN(c2ccc3nc(-c4c(N)c5ccsc5[nH]c4=O)[nH]c3c2)CC1 [Example A1, 4-amino-5-(6-(4-methylpiperazin-1-yl)-1H-benzo[d]imidazol-2-yl)thieno[2,3-b]pyridin-6(7H)-one]
- IC50 (LCK): 50 to 500 nM
- minimal effective concentration [1]: > 3 µM
- IC50 (FLT3): ≤ 50 nM
- Tumour growth inhibition (TGI) (CT26 WT colon carcinoma; 75 mg/kg QD PO for 21 days, day 21, BALB/c mice): 44%
- Survival (tumour size <1500 mm^3 at day 21) (CT26 WT colon carcinoma; 75 mg/kg/day Example A1 arm): 25%
- Tumour growth inhibition (TGI) (CT26 WT colon carcinoma; 150 mg/kg QD PO Example A1 combined with 150 μg anti-PD-1 antibody IP day 0, 3, 6 and 10, day 21): 86%
- Tumour growth inhibition (TGI) (CT26 WT colon carcinoma; 150 mg/kg QD PO for 21 days, day 21, BALB/c mice): 64%
- Survival (tumour size <1500 mm^3 at day 21) (CT26 WT colon carcinoma; 150 mg/kg/day Example A1 and anti-PD-1 arm): 87.5%
- Survival (tumour size <1500 mm^3 at day 21) (CT26 WT colon carcinoma; 150 mg/kg/day Example A1 arm): 37.5%
- Tolerability (body weight, clinical signs) (CT26 WT colon carcinoma; 75 and 150 mg/kg QD PO 21 days, BALB/c mice, all animals gaining weight, none terminated due to clinical signs): well tolerated
